Results taken from US8017727B2, “Conjugates of membrane translocating agents and pharmaceutically active agents” (Merrion Research III Limited, priority 1999, dated 2011).

Columns and labels:
[1] = Systemic 3H bioavailability of kappa peptide conjugates, conscious rat model (plasma); type: in vivo, Wistar rats; details: intraduodenal (ID), 100 μCi
Experimental: The possible enhancing effects of ELAN094 and ELAN207 MTLPs (SEQ ID NOs 2 and 60) on intestinal absorption of the kappa peptide were examined in a conscious rat model.
The study was non-randomised, parallel group design. Wistar rats within the 250-350 g weight range were used. All animals were fasted for a period of 16 h prior to study initiation. Water was available at all times.
Intravenous injection of 10 μCi of ^3H-kappa peptide-Kaffiralin-1 (plain kappa peptide) (tail vein injection).
Intraduodenal instillation of 100 μCi of ^3H-kappa peptide-Elan094 (Analysed). The Elan094 ligand contains a membrane translocating sequence.
Intraduodenal instillation of 100 μCi of ^3H-kappa peptide-Elan207 (Analysed). The Elan207 ligand contains a membrane translocating sequence.
Intraduodenal instillation of 100 μCi of ^3H-kappa peptide-Kaffiralin-1.
The plasma (100-250 μl) was made up to 1 ml with BTS-450 (an organic tissue solubiliser) and incubated for 1 hour. Ten ml of Scintillation fluid was added and the radioactivity was measured.
The study was a non-randomised, parallel group biostudy designed to evaluate the systemic bioavailability of tritium labelled kappa peptide conjugates after intra-duodenal instillation in the conscious rat model. Each rat only received one treatment and the plasma samples were analysed for tritium content. The calculation of AUClast, Amax, tmax, Volume of Distribution (V d) and Clearance was based on base line corrected data. The absolute bioavailability was calculated using potency corrected data.

[2] = test system: Caco-2 cell monolayers; assay: Permeability of tritiated kappa peptide conjugates through differentiated Caco-2 cell monolayers; type: in vitro ADME, human; details: n=5
Experimental: Highest transport values were obtained in the first 30 min followed by a 2-4 fold decrease at 60 min. The significance of these findings is unclear. The data may be indicative of dual binding/uptake events occurring through i) a kappa receptor specific mechanism and ii) direct membrane interaction through lipid interaction of the membrane permeable peptide.

[3] = 3H tissue distribution of kappa peptide conjugates, conscious rat model; type: in vivo, Wistar rats; details: ID, 100 μCi, potency corrected
Experimental: The tissue was weighed and a representative sample, (ca 0.1 g), was removed to a scintillation vial. The tissue was solubilzed with 1 ml of BTS-450 (an organic tissue solubliser). Ten ml of scintillation fluid was added and the radioactivity was measured. The radioactivity was expressed as dpm/initial weight of tissue.

[4] = Opioid peptide stability in SIF (pancreatin, pH 7.5, HPLC/LCMS); type: in vitro ADME
Experimental: Pancreatin (Fisher Scientific) was dissolved at 1 mg/ml in 1× phosphate buffer solution. The pH of the solution was adjusted to 7.5 with 0.01 M NaOH and it was heated in a waterbath to 37° C. Two dry peptide samples were weighed out. One sample was dissolved in phosphate buffer solution at 1.0 mg/ml as a control. The second sample was dissolved in SIF at 1.0 mg/ml for stability analysis. HPLC Analysis Conditions RP-HPLC analysis with C-18 short column (Betasil column, 5 μm (50×3 mm) PN: 055-701-3) with the following gradient: […]
Diode array detector on the system, 214 nm used for analysis
Solution in SIF injected at 0, 1, 3, and 24 hours
Analyzed control and 24 hour sample by LCMS.

[5] = molecular target: T1, kappa receptor (Rattus norvegicus, UniProt P34975); assay: Competition for binding of a radiolabelled kappa peptide to rat brain homogenates; details: IC50, Day 82, first of triplicates
T1 construct: from tissue; host or cells: rat brain homogenate
Experimental: The integrity of the opioid peptide was evaluated post conjugation to assess suitability for inclusion in further studies. Opioid activity was assessed in vitro using a competition assay (competition for binding of a radiolabelled kappa peptide to rat brain homogenates).

[6] = Stability of MTLPs in simulated intestinal fluid pH 6.8 with pancreatin (HPLC recovery)
Experimental: MTLPs ZElan094 and ZElan207 (SEQ. ID NO: 2 and 60) were dissolved in water and mixed with simulated intestinal fluid pH 6.8 containing porcine derived pancreatin (SIF+Pancreatin) at 37° C. The mixtures were incubated for up to 60 minutes at 37° C., with aliquots taken at designated time points. The reaction was quenched with quenching solution after the relevant time points in order to halt the reaction between the SIF and ligand.
Approximately 1 mg of ligand was dissolved in 1 ml of water. This standard stock solution of ligand was used to prepare the solutions containing Ligand+SIF+Pancreatin. 50 μL of ligand solution was mixed with volumes of SIF+Pancreatin in separate eppendorfs, as follows:
At the appropriate time point the reaction between the ligand and SIF was stopped by pipetting 100 μL of the mixture into 500 μL of quenching solution (Acetonitrile:Water 30:70). 20 μL of the mixture was injected onto the HPLC system.
Control samples of ligand in water and in quenching solution were prepared to check for recovery of ligand in the absence of SIF+Pancreatin.

[7] = test system: Caco-2 monolayers; assay: Transport of dipeptide 14C-gly-sar across Caco-2 monolayers; type: cell-based, human; design: key to % inhibition 14C-gly-sar transport: NS: no significant difference between experimental (+MTLP) and control cells (−MTLP) in the transport of radiolabeled drug; details: flux measured over 2 h
Experimental: The effect of the MTLPs ZElan094, ZElan178 and ZElan187 (SEQ ID NOS: 2, 7 and 16) and of the targeting peptide ZElan022 (U.S. patent application Ser. Nos. 09/079,819, 09/079,723 AND 09/079,678, AND PCT APPLICATION PCT/US98/10088, PUBLISHED AS WO 98/51325) on the transport of the dipeptide ^14C-gly-sar and of the reporter molecule ^3H-fMLP across Caco-2 monolayers was determined. The Caco-2 monolayers were grown on Transwell-Snapwells. Cell viability was determined by measuring TEER of the Caco-2 monolayers during each experiment. No significant drop in TEER was measured. Cell permeability was determined by measuring mannitol flux across the Caco-2 monolayers during each experiment. No increase in mannitol flux was measured in the presence of the MTLP ZElan094.
The flux of the dipeptide ^14C-gly-sar and of the reporter molecule ^3H-fMLP across the Caco-2 monolayers in the absence and in the presence of the MTLPs ZElan094, ZElan178 and ZElan187 (SEQ ID NOS: 2, 7 and 16) and of the targeting peptide ZElan022 (U.S. patent application Ser. Nos. 09/079,819, 09/079,723 AND 09/079,678), AND PCT APPLICATION PCT/US98/10088, PUBLISHED AS WO 98/51325 was measured over 2 h, and reduction in the permeability coefficient was determined in the presence of cold substrates.

CC[C@@H](C)[C@@H](NC(=O)[C@@H](Cc1ccccc1)NC(=O)[C@@H](Cc1ccccc1)NC(=O)[C@H](CCCCN)NC(=O)[C@@H]1CCCN1C(=O)[C@H](C)NC(=O)[C@H](C)NC(=O)[C@H](CC(C)C)NC(=O)[C@H](CC(C)C)NC(=O)[C@@H](NC(=O)[C@@H]1CCCN1C(=O)[C@H](CC(C)C)NC(=O)[C@H](CC(C)C)NC(=O)[C@@H](NC(=O)[C@H](C)NC(=O)[C@H](C)NC(=O)[C@H](C)NC(=O)[C@H](CCCCN)NC(=O)[C@@H](N)CCCCN)C(C)C)C(C)C)C(=O)N[C@H](CCCNC(=N)N)C(N)=O [3H-Kappa peptide-Elan094]
fold increase in absolute 3H bioavailability versus kappa peptide without ligand [1]: ~6 fold
3H AUClast ([1]; Elan207 = original group): 260642.53±35010.58 dpm/ml·h
3H Amax (maximum radioactivity) ([1]; Elan207 = original group): 158512.67±18907.79 dpm/ml
fold increase in absolute 3H bioavailability versus kappa peptide without ligand ([1]; listed as Elan094 MTLP): approximately 5.8 fold
bioavailability ([1]; rat, plasma, potency corrected, Elan207 = original group, read-out: Absolute 3H bioavailability): 46.5 ± 6.24%
permeability compared to the kappa peptide control [2]: No significant increase
Catheter, % of administered dose [3]: 0.20 ± 0.10%
GI Tissue, % of administered dose [3]: 11.61 ± 11.27%
GI Washing, % of administered dose [3]: 9.70 ± 5.24%
GI contents, % of administered dose [3]: 23.57 ± 21.57%
Liver, % of administered dose [3]: 0.37 ± 0.06%
Total GI (% recovery from GI tissue, GI contents & GI wash) [3]: 44.89 ± 19.94%
Kidney, % of administered dose ([3]; t=6 h): 0.12 ± 0.07%
Plasma, % of administered dose ([3]; t=6 h): 0.42±0.08%
Total Recovery, % of administered dose ([3]; t=6 h): 46.00 ± 19.91%

CC[C@@H](C)[C@@H](NC(=O)[C@@H](Cc1ccccc1)NC(=O)[C@H](N)Cc1ccccc1)C(=O)N[C@H](CCCNC(=N)N)C(N)=O [H-ffir-NH2]
stability in SIF ([4]; over the 24 hour period): very stable
remaining at 1 h, 1 mg/ml ([4]; simulated intestinal fluid (SIF) with pancreatin, pH 7.5, SIF, 37° C., 1 hr, read-out: % Compound): 105%
remaining at 24 h, 1 mg/ml ([4]; simulated intestinal fluid (SIF) with pancreatin, pH 7.5, SIF, 37° C., 24 hr, read-out: % Compound): 101%
IC50 [5]: 4 nM

CC(C)C[C@@H](NC(=O)[C@@H](CC(C)C)NC(=O)[C@H](NC(=O)[C@H]1CCCN1C(=O)[C@@H](CC(C)C)NC(=O)[C@@H](CC(C)C)NC(=O)[C@H](NC(=O)[C@@H](C)NC(=O)[C@@H](C)NC(=O)[C@@H](C)NC(=O)[C@@H](CCCCN)NC(=O)[C@@H](CCCCN)NC(=O)[C@H](N)CCCCNS(=O)(=O)c1cccc2c(N(C)C)cccc12)C(C)C)C(C)C)C(=O)N[C@H](C)C(=O)N[C@H](C)C(=O)N1CCC[C@@H]1C(N)=O [ZElan207]
recovery ([6]; % Recovery, control without SIF: Pep + H2O (100 ul) + H2O, 60 min): 101%
recovery ([6]; % Recovery, control without SIF: Pep + H2O (100 ul) + quenching solution, 60 min): 101%
recovery ([6]; pH 6.8, % Recovery, Peptide + 100 uL SIF pH 6.8, 37 C, 5 min): 96.6%
recovery ([6]; pH 6.8, % Recovery, Peptide + 100 uL SIF pH 6.8, 37 C, 10 min): 97.4%
recovery ([6]; pH 6.8, % Recovery, Peptide + 100 uL SIF pH 6.8, 37 C, 30 min): 87.8%
recovery ([6]; pH 6.8, % Recovery, Peptide + 100 uL SIF pH 6.8, 37 C, 60 min): 97.7%
recovery ([6]; pH 6.8, % Recovery, Peptide + 200 uL SIF pH 6.8, 37 C, 5 min): 99%
recovery ([6]; pH 6.8, % Recovery, Peptide + 200 uL SIF pH 6.8, 37 C, 10 min): 96.3%
recovery ([6]; pH 6.8, % Recovery, Peptide + 200 uL SIF pH 6.8, 37 C, 30 min): 92.8%
recovery ([6]; pH 6.8, % Recovery, Peptide + 200 uL SIF pH 6.8, 37 C, 60 min): 96.5%

H-K(ε-dansyl)KKAAVLLPVLLA-NH2 ({K(ε-dansyl)}-KKAAVLLPVLLA-NH2) [ZElan187]
% inhibition 14C-gly-sar transport [7]: NS
inhibition of 14C-gly-sar transport [7]: did not inhibit transport

H-K(ε-dansyl)KKCAAVLLPVLLAC-NH2 ({K(ε-dansyl)}-KKCAAVLLPVLLAC-NH2; not fully specified; printed as H-K(ε-dansyl)KKCAAVLLPVLLAC-NH2; also: cyclic internal, bridge kind and places not given here) [ZElan178]
% inhibition 14C-gly-sar transport [7]: NS
inhibition of 14C-gly-sar transport [7]: did not inhibit transport
